Source: US4619941A, “N-[(1H-imidazol-1-yl)alkyl]-1H-indolecarboxamides useful as thromboxane synthetase inhibitors and antihypertensive agents” (American Cyanamid Company, priority 1984, dated 1986)

Legend:
thromboxane synthetase = molecular target: T1, thromboxane synthetase (Rattus norvegicus, UniProt P49430); test: Inhibition of thromboxane (TXA2) formation, determined as TXB2 formed by washed SHR platelets (direct RIA); format: cell-based, Okamoto-Aoki spontaneously hypertensive rats (SHR); conditions: Dose 10^-4 M, 10 minutes at 37° C., pH 7.4
T1 construct: The platelets were isolated by centrifuging the PRP for 10 minutes at 1060 xg; endogenous in cells; host or cells: washed platelets from arterial blood of Okamoto-Aoki spontaneously hypertensive rats (Taconic Farms), 19 to 24 weeks old
T1 sequence (P49430 1-533): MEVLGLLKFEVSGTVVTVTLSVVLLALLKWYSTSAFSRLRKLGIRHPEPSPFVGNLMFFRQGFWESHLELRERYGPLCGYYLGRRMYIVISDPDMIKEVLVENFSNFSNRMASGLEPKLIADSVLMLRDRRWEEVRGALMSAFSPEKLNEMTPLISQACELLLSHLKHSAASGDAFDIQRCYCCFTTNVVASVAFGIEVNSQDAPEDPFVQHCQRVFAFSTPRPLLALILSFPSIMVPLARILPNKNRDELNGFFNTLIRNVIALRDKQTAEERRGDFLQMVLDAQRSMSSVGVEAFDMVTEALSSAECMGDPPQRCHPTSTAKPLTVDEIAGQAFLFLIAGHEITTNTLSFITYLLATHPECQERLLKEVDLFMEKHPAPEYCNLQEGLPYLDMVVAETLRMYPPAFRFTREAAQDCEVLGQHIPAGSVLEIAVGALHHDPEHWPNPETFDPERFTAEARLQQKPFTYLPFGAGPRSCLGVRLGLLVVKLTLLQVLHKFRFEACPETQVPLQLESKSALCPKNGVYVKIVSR
Experimental: The inhibition of thromboxane (TXA2) formation was studied by determining the concentration of thromboxane B2 (TXB2), the stable hydrolysis product of TXA2.
The blood was diluted with 3 ml cold saline and centrifuged at room temperature for 15 minutes at 460 xg. The platelet rich plasma (PRP) was separated. The platelets were isolated by centrifuging the PRP for 10 minutes at 1060 xg and were washed in 4 ml cold oxygenated Krebs phosphate buffer, pH 7.4. the chilled platelets recovered from centrifuging at 800 xg for 10 minutes were resuspended in oxygenated Krebs phosphate buffer and diluted to contain 4.5-6.0×10^4 platelets/μl. […] The samples were incubated for 10 minutes at 37° C. in a metabolic shaker. The reaction was terminated by immersing the tubes in an ice bath and adding 50 μl of 0.5 M citric acid. The samples were centrifuged for 10 minutes in a refrigerated centrifuge and the supernatants thus obtained were decanted and stored at -20° C. The TXB2 content for each sample was determined by a direct radioimmunoassay (RIA) utilizing a TXB2 specific RIA kit purchased from New England Nuclear, Boston, MA and expressed as pg TXB2 formed minute^-1 sample^-1, from which the percent inhibition of TXB2 formation was calculated.

[1] = test system: spontaneously hypertensive rats of the Okamoto strain; test: Hypotensive activity in spontaneously hypertensive rats, mean arterial blood pressure (method of Chan and Poorvin); format: in vivo; conditions: by gavage, 100 mg/kg or less, second identical dose at 24 hours; measured 28 hours after initial dose; SHR average MABP 160±1.5 mm Hg
Experimental: Male, 16 week old, spontaneously hypertensive rats of the Okamoto strain, from Taconic Farms, Germantown, N.Y., having an average means arterial blood pressure of 160±1.5 mm of mercury are used in the test. One to three rats are used per test compound. A rat is dosed by gavage with a test compound, suspended in 2% pre-boiled starch at a concentration of 50 mg/ml, at a dose of 100 mg/kg of body weight or less with 0.9% sodium chloride loading at a dose of 25 ml/kg of body weight. A second identical dose of the test compound, without sodium chloride loading is given 24 hours later. At 28 hours after the initial dose the mean arterial blood pressure is measured by the method of Chan and Poorvin vide supra. The procedure is repeated in a second and third rat when necessary.

| SMILES | inhibition at 100 µM (thromboxane synthetase) [%] | MABP (mean arterial blood pressure) [1] [mm Hg] |
| --- | --- | --- |
| Cc1nccn1CCCNC(=O)c1cc2ccccc2n1C [1-Methyl-N-[3-(2-methyl-1H-imidazol-1-yl)-propyl]-1H-indole-2-carboxamide] | 56 | – |
| Cc1cn(CCCNC(=O)c2cc3ccccc3n2C)cn1 [1-Methyl-N-[3-(4-methyl-1H-imidazol-1-yl)propyl]-1H-indole-2-carboxamide] | 85 | 136 |
| CC(CNC(=O)c1cc2cc(Cl)ccc2[nH]1)Cn1ccnc1 (stereo not drawn) [5-Chloro-N-[3-(1H-imidazol-1-yl)-2-methylpropyl]-1Hindole-2carboxamide] | 100 | 123 |
| O=C(NCCCCn1ccnc1)c1cc2cc(Cl)ccc2[nH]1 [5-Chloro-N-[4-(1H-imidazol-1-yl)butyl]-1H-indole-2-carboxamide] | – | 118 |
| O=C(NCCCCCn1ccnc1)c1cc2cc(Cl)ccc2[nH]1 [5-Chloro-N-[5-(1H-imidazol-1-yl)pentyl]-1H-indole-2-carboxamide] | – | 124 |
| COc1ccc2[nH]c(C(=O)NCCCn3ccnc3C)cc2c1 [5-Methoxy-N-[3-(2-methyl-1H-imidazol-1-yl)propyl]-1H-indole-2-carboxamide] | 49 | – |
| COc1ccc2[nH]c(C(=O)NCCCCn3ccnc3)cc2c1 [5-Methoxy-N-[4-(1H-imidazol-1-yl)butyl]-1H-indole-2-carboxamide] | 100 | 130 |
| O=C(NCCCn1ccnc1)c1ccc2[nH]ccc2c1 [N-[3-(1H-Imidazol-1-yl)propyl]-1H-indole-5-carboxamide] | – | 133 |
| Cc1cn(CCCNC(=O)c2cc3ccccc3[nH]2)cn1 [N-[3-(4-Methyl-1H-imidazol-1-yl)propyl]-1H-indole-2-carboxamide] | 100 | 131 |
| O=C(NCCCCn1ccnc1)c1cc2ccccc2[nH]1 [N-[4-(1H-Imidazol-1-yl)butyl]-1H-indole-2-carboxamide] | 100 | 137 |

Continued, in another order:

| inhibition at 100 µM (thromboxane synthetase) [%] | SMILES | MABP (mean arterial blood pressure) [1] [mm Hg] |
| --- | --- | --- |
| 98 | CC(CCNC(=O)c1cc2cc(Cl)ccc2[nH]1)n1ccnc1 (stereo not drawn) [5-Chloro-N-[3-(1H-imidazol-1-yl)-butyl]-1H-indole-2-carboxamide] | 119 |
| 95 | O=C(NCCCn1ccnc1)c1cc2cc(Cl)ccc2[nH]1 [5-Chloro-N-[3-(1H-imidazol-1-yl)propyl]-1H-indole-2-carboxamide] | – |
| 100 | Cc1cn(CCCNC(=O)c2cc3cc(Cl)ccc3[nH]2)cn1 [5-Chloro-N-[3-(4-methyl-1H-imidazol-1-yl)propyl]-1H-indole-2-carboxamide] | 135 |
| 66 | O=C(NCCCCCCCCn1ccnc1)c1cc2cc(Cl)ccc2[nH]1 [5-Chloro-N-[8-(1H-imidazol-1-yl)octyl]-1H-indole-2-carboxamide] | – |
| 88 | Cn1c(C(=O)NCCCn2ccnc2)cc2ccccc21 [N-[3-(1H-Imidazol-1-yl)propyl]-1-methyl-1H-indole-2-carboxamide] | – |
| 94 | O=C(NCCCn1ccnc1)c1cc2ccccc2[nH]1 [N-[3-(1H-Imidazol-1-yl)propyl]-1H-indole-2-carboxamide] | 114 |
| 96 | COc1ccc2[nH]c(C(=O)NCCCn3ccnc3)cc2c1 [N-[3-(1H-Imidazol-1-yl)propyl]-5-methoxy-1H-indole-2-carboxamide] | – |
| 44 | Cc1nccn1CCCNC(=O)c1cc2ccccc2[nH]1 [N-[3-(2-Methyl-1H-imidazol-1-yl)propyl]-1H-indole2-carboxamide] | – |
| 91 | O=C(NCCCn1ccnc1-c1ccccc1)c1cc2ccccc2[nH]1 [N-[3-(2-Phenyl-1H-imidazol-1-yl)propyl]-1H-indole-2-carboxamide] | – |
